Results published in patent publication US20180155386A1, “PROGESTERONE ANTAGONISTS” (Evestra, Inc., priority 2011, published 2018).
Each block holds one compound with its values, some of them ahead of it.

Key:
[1] = tested on: uterine weight of non-pregnant guinea pigs; assay: Uterine weights of guinea pigs; assay type: in vivo; conditions: 10 mg s.c. from day 10 of cycle; sacrifice day 18; untreated guinea pig 1.2 g; higher than 1.2 g indicates pure progesterone antagonistic activity
Experimental: 3 Non-pregnant guinea pigs in the luteal phase of the cycle will be treated with 10 mg of the compound subcutaneously beginning on day 10 of the cycle. Animals were sacrificed on day 18 after the start of the treatment and the uterine weights were obtained at the time of sacrifice. Comparisons will be made to onapristone-treated animals at 10 mg/animal/day s.c

[2] = target: T1, progesterone receptor (Homo sapiens, UniProt P06401); conditions: background statement in words; cited from earlier work
T1 sequence (P06401 1-933): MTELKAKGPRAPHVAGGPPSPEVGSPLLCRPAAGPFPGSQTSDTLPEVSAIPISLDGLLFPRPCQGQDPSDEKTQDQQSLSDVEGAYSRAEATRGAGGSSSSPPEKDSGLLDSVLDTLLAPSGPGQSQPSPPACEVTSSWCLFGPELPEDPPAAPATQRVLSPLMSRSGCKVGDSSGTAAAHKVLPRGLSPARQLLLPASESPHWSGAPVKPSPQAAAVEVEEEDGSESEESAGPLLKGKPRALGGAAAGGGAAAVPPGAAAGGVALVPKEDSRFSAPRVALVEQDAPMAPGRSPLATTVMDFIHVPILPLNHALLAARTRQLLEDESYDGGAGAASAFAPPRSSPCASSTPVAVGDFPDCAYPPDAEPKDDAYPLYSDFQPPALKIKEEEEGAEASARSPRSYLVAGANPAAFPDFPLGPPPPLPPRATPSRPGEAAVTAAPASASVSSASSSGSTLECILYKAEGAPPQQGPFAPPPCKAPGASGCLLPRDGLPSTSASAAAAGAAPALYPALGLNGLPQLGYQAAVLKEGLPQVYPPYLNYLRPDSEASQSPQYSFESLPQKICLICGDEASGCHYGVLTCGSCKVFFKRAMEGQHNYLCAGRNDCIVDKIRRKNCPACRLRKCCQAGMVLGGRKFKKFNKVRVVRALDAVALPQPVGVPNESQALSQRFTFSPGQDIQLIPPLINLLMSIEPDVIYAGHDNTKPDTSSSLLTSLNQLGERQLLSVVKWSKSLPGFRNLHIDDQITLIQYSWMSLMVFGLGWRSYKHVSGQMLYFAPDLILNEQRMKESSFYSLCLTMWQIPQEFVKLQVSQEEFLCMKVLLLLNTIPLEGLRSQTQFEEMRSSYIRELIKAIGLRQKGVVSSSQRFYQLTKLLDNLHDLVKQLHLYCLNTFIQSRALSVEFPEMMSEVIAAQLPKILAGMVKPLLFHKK

[3] = target: T2, glucocorticoid receptor (Homo sapiens, UniProt P04150); conditions: background statement in words; cited from earlier work
T2 sequence (P04150 1-777): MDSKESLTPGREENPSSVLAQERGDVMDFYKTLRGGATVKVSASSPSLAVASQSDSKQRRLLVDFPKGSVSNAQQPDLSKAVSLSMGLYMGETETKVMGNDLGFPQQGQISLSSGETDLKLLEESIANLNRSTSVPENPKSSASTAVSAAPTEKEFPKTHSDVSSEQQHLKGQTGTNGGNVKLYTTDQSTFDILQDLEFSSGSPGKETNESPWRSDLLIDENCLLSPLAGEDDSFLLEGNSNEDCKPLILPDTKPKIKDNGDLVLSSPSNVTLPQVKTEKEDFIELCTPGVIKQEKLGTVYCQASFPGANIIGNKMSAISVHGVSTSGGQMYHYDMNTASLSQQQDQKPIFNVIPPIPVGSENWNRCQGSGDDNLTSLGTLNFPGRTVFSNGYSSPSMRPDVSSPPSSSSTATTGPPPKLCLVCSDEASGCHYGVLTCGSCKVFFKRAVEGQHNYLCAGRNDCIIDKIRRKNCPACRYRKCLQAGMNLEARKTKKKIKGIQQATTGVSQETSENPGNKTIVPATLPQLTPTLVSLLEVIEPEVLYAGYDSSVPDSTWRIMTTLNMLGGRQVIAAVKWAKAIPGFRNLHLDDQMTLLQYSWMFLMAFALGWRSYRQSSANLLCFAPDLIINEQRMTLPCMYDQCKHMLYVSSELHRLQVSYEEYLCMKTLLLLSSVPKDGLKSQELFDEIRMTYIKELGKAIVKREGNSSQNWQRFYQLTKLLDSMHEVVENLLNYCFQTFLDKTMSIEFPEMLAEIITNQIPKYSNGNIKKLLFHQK

[4] = target: T3, progesterone receptor-LBD-UAS-bla HEK 293T cells (Homo sapiens, UniProt P06401); assay: Progesterone Antagonist Screen (GeneBLAzer Beta-lactamase reporter, activated by control agonist R5020); assay type: cell-based; conditions: values relative to RU486, which is 100%; HEK 293T reporter cells, agonist R5020 at EC80
T3 construct: host or cells: HEK 293T
T3 sequence (P06401 679-913 limits assumed): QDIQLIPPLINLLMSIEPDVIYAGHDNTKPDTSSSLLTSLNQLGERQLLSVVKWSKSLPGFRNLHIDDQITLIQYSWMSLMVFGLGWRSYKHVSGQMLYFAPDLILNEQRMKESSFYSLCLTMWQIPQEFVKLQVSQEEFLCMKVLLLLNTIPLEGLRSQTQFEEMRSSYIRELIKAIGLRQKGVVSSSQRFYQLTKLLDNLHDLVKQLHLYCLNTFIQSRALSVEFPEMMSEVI
Experimental: Determination of the agonist/antagonist nature of the test compounds was carried out using Invitrogen's SelectScreen™ Cell-based nuclear receptor profiling service which uses the GeneBLAzer® Beta-lactamase reporter technology. Basically this assay uses a Beta-lactamase cDNA under transcriptional control of an Upstream Activator Sequence (UAS). The UAS is activated by the GAL4 transcription factor DNA binding domain (DBD), which is expressed as a fusion protein with the target receptor ligand binding domain (LBD). Upon ligand binding, the GAL4(DBD)-NR(LDB) binds to the UAS, which controls transcription of Beta-lactamase. Beta-lactamase cleaves a special engineered fluorescent substrate which results in a change in the measured fluorescence wavelength.
The generalized protocol used for the Progesterone Antagonist Screen, activated by control Agonist R5020 is as follows:
The progesterone receptor-LBD-UAS-bla HEK 293T cells are thawed and prepared as described above for the Agonist screen. 4 μL of a 10× serial dilution of control antagonist RU-486 (starting concentration, 100 nM) or test compounds are added to appropriate wells of a TC-Treated assay plate. 32 μL of cell suspension is added to the wells which is then pre-incubated at 37° C./5% CO2 in a humidified incubator with test compounds and control antagonist titration for 30 minutes. 4 μL of a 10× control agonist (see above) at the predetermined EC80 concentration is added to wells containing the control antagonist or test compounds. The plate is incubated for 16-24 hours at 37° C./5% CO2 in a humidified incubator. 8 μL of 1 μM Substrate Loading Solution is added to each well and the plate is incubated for 2 hours at room temperature. The plate is then read on a fluorescence plate reader (Tecan Safire).

[5] = tested on: human breast cancer cell line T47D; assay: In vitro antiproliferative activity in human breast cancer cell line T47D (MTT); assay type: cell-based; conditions: 168 h, T47D cells, 7 days after cell seeding
Experimental: Cells from frozen stock were expanded in T75 cell culture flasks. For the experiment, cells in the logarithmic growth phase (70% confluent) were cultivated for 3 day without estradiol and then washed with PBS, detached by trypsination and suspended in 5 ml of fresh RPMI-1640 medium. Cells were centrifuged for 5 min at 1000 rpm and the pellet was resuspended in RPMI-1640 medium.
Cells were seeded in 96-well plates with a density of 5000 cells/well/in 0.18 mL RPMI-1640 medium. Cells were allowed to attach for 24 h. Visual control for viability at 24 h and cell culture medium change. At this time point, compounds were added in 20 μl to the final concentration. After 3 days medium and compounds where changed again. Finally, 7 days after cell seeding, 20 μl MTT-solution was added to each well and 4 h later the formed tetrazolium salt was measured with a photometer.

SMILES: CC#C[C@]1(O)CC[C@H]2[C@@H]3CCC4=CC(=O)CCC4=C3[C@@H](c3ccc(N(C)C)cc3)C[C@@]21C [RU 486, Mifepristone]
Uterine Weights of Guinea Pigs Treated with antiprogestins (grams) [1]: 1.81 grams | antiprogestagenic activity / progesterone antagonism [2]: potent progesterone antagonist | antiglucocorticoid effects / glucocorticoid receptor antagonism [3]: overt glucocorticoid receptor antagonism

Emax [4]: 81%
SMILES: CC(=O)c1ccc([C@H]2C[C@@]3(C)[C@@H](CC[C@@]3(O)C(F)(F)C(F)(F)F)[C@@H]3CCC4=CC(=O)CCC4=C32)cc1 [ZK 230211, Lonaprisan, reference compound]
IC50 [5]: 0.3 nM | antiprogestagenic activity / progesterone antagonism [2]: high antiprogestagenic activity | antiglucocorticoid effects / glucocorticoid receptor antagonism [3]: only marginal antiglucocorticoid effects
